Assay results from ChEMBL document CHEMBL1240510, “Synthesis, stereochemical separation, and biological evaluation of selective inhibitors of human MAO-B: 1-(4-arylthiazol-2-yl)-2-(3-methylcyclohexylidene)hydrazines” (J Med Chem, 2010).
pIC50: −log10 of the molar value.

Molecular target: T1, Amine oxidase [flavin-containing] A (Homo sapiens, UniProt P21397)
T1 sequence (P21397 whole entry): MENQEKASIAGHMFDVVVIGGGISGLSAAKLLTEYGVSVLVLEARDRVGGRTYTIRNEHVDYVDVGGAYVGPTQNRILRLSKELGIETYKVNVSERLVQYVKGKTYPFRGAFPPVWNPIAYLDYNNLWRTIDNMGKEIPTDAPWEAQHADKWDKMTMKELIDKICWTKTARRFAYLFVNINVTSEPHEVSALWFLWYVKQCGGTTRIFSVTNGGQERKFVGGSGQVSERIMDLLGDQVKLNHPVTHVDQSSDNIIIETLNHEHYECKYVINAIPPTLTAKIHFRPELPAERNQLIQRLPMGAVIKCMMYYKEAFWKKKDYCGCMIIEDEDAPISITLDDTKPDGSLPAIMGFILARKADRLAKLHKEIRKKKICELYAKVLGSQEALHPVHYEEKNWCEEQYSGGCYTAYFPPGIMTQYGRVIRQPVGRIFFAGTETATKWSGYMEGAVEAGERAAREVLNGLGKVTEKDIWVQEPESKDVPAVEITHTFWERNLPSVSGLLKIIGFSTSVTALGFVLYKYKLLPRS
Assay: biochemical
Assay type: cell-based, BTI-TN-5B1-4

Compound	pIC50
COc1ccc(-c2csc(N/N=C3/CCC[C@@H](C)C3)n2)cc1	5.37
CC1CCC/C(=N/Nc2nc(-c3ccc(Cl)cc3)cs2)C1 (centres undefined)	4.64
CC1CCC/C(=N/Nc2nc(-c3ccc(C#N)cc3)cs2)C1 (centres undefined)	4.69
CC1CCC/C(=N/Nc2nc(-c3ccc(Cl)cc3Cl)cs2)C1 (centres undefined)	4.36
C[C@@H]1CCC/C(=N/Nc2nc(-c3ccc(C#N)cc3)cs2)C1	4.66
CC1CCC/C(=N/Nc2nc(-c3ccccc3)cs2)C1 (centres undefined)	4.42
C[C@@H]1CCC/C(=N/Nc2nc(-c3ccccc3)cs2)C1	4.41
C[C@@H]1CCC/C(=N/Nc2nc(-c3ccc(Cl)cc3Cl)cs2)C1	4.39
C[C@@H]1CCC/C(=N/Nc2nc(-c3ccc(Cl)cc3)cs2)C1	4.64
